Source: ChEMBL document CHEMBL5120839, “Design, synthesis and antibacterial activity of novel pleuromutilin derivatives with thieno[2,3-d]pyrimidine substitution” (Eur J Med Chem, 2022)
≈ marks a conversion by molar mass, not a printed value.

Columns and labels:
Format in all cases: functional
[1] = tested on: Staphylococcus aureus; test: Antibacterial activity against Staphylococcus aureus assessed as diameter of the inhibition circle at 1 mg/ml incubated for 48 hrs
[2] = tested on: Staphylococcus aureus; test: Antibacterial activity against Staphylococcus aureus assessed as inhibition of bacterial growth incubated for 24 hrs by microbroth two-fold dilution method
[3] = tested on: Streptococcus agalactiae; test: Antibacterial activity against Streptococcus agalactiae assessed as inhibition of bacterial growth incubated for 24 hrs by microbroth two-fold dilution method
[4] = tested on: Escherichia coli; test: Antibacterial activity against Escherichia coli assessed as inhibition of bacterial growth incubated for 24 hrs by microbroth two-fold dilution method
[5] = tested on: Staphylococcus aureus; test: Antibacterial activity against Methicillin-resistant Staphylococcus aureus BNCC 337371 assessed as inhibition of bacterial growth incubated for 24 hrs by microbroth two-fold dilution method
[6] = tested on: Streptococcus agalactiae; test: Antibacterial activity against Streptococcus agalactiae assessed as bacterial growth by measuring optical density at 0.5 times MIC incubated for 12 hrs by real time growth curve analysis
[7] = tested on: Escherichia coli; test: Antibacterial activity against Escherichia coli assessed as bacterial growth by measuring optical density at 0.5 times MIC incubated for 12 hrs by real time growth curve analysis
[8] = tested on: Streptococcus agalactiae; test: Antibacterial activity against Streptococcus agalactiae assessed as bacterial growth by measuring optical density at 1 to 2 times MIC incubated for 12 hrs by real time growth curve analysis
[9] = tested on: Escherichia coli; test: Antibacterial activity against Escherichia coli assessed as bacterial growth by measuring optical density at 1 to 2 times MIC incubated for 12 hrs by real time growth curve analysis

MIC [2] [µg/mL] | MIC [3] [µg/mL] | MIC [4] [µg/mL] | SMILES | inhibition zone diameter [1] [mm] | MIC [5] [µg/mL] | OD [6] | OD [7] | OD [8] | OD [9]
0.244 (≈ 0.408 µM) | 0.244 (≈ 0.408 µM) | 3.91 (≈ 6.52 µM) | C=C[C@]1(C)C[C@@H](OC(=O)CSc2ncc(C)c(N3CCN(CC)CC3)n2)[C@]2(C)[C@H](C)CC[C@]3(CCC(=O)[C@H]32)[C@@H](C)[C@@H]1O | 26.6 | – | – | – | – | –
0.488 (≈ 0.748 µM) | 0.244 (≈ 0.374 µM) | 1.95 (≈ 2.99 µM) | C=C[C@]1(C)C[C@@H](OC(=O)CSc2nc(N3CCN(CC)CC3)cc(C(F)(F)F)n2)[C@]2(C)[C@H](C)CC[C@]3(CCC(=O)[C@H]32)[C@@H](C)[C@@H]1O | 21 | – | – | – | – | –
0.244 (≈ 0.373 µM) | 0.0076 (≈ 0.0116 µM) | 0.977 (≈ 1.49 µM) | C=C[C@]1(C)C[C@@H](OC(=O)CSc2nc(N3CCN(CC)CC3)c3c(C)csc3n2)[C@]2(C)[C@H](C)CC[C@]3(CCC(=O)[C@H]32)[C@@H](C)[C@@H]1O | 31.2 | – | – | – | – | –
7.81 (≈ 11.7 µM) | 0.244 (≈ 0.367 µM) | 15.6 (≈ 23.5 µM) | C=C[C@]1(C)C[C@@H](OC(=O)CSc2nc(N/N=C/c3ccc(F)cc3)c3ccsc3n2)[C@]2(C)[C@H](C)CC[C@]3(CCC(=O)[C@H]32)[C@@H](C)[C@@H]1O | 20.2 | – | – | – | – | –
7.81 (≈ 12.4 µM) | 1.95 (≈ 3.1 µM) | > 15.6 | C=C[C@]1(C)C[C@@H](OC(=O)CSc2nc(N3CCSCC3)c3ccsc3n2)[C@]2(C)[C@H](C)CC[C@]3(CCC(=O)[C@H]32)[C@@H](C)[C@@H]1O | 14 | – | – | – | – | –
15.6 (≈ 25 µM) | 7.81 (≈ 12.5 µM) | > 15.6 | C=C[C@]1(C)C[C@@H](OC(=O)CSc2nc(N3CCC(C)CC3)c3ccsc3n2)[C@]2(C)[C@H](C)CC[C@]3(CCC(=O)[C@H]32)[C@@H](C)[C@@H]1O | 10.9 | – | – | – | – | –
15.6 (≈ 21.5 µM) | 0.977 (≈ 1.35 µM) | > 15.6 | C=C[C@]1(C)C[C@@H](OC(=O)CSc2nc(N/N=C/c3ccccc3Br)c3ccsc3n2)[C@]2(C)[C@H](C)CC[C@]3(CCC(=O)[C@H]32)[C@@H](C)[C@@H]1O | 22.8 | – | – | – | – | –
0.122 (≈ 0.195 µM) | 0.061 (≈ 0.0973 µM) | 0.976 (≈ 1.56 µM) | C=C[C@]1(C)C[C@@H](OC(=O)CSc2nc(N3CCCNCC3)c3ccsc3n2)[C@]2(C)[C@H](C)CC[C@]3(CCC(=O)[C@H]32)[C@@H](C)[C@@H]1O | 26.2 | – | – | – | – | –
0.244 (≈ 0.447 µM) | 0.122 (≈ 0.224 µM) | 3.91 (≈ 7.16 µM) | C=C[C@]1(C)C[C@@H](OC(=O)CSc2ncc(C)c(NCCO)n2)[C@]2(C)[C@H](C)CC[C@]3(CCC(=O)[C@H]32)[C@@H](C)[C@@H]1O | 27.6 | – | – | – | – | –
3.91 (≈ 6.53 µM) | 0.061 (≈ 0.102 µM) | > 15.6 | C=C[C@]1(C)C[C@@H](OC(=O)CSc2nc(N3CCCC3)c3ccsc3n2)[C@]2(C)[C@H](C)CC[C@]3(CCC(=O)[C@H]32)[C@@H](C)[C@@H]1O | 17.8 | – | – | – | – | –
3.91 (≈ 6.83 µM) | 1.95 (≈ 3.42 µM) | 15.6 (≈ 27.3 µM) | C=C[C@]1(C)C[C@@H](OC(=O)CSc2nc(N(C)C)c3ccsc3n2)[C@]2(C)[C@H](C)CC[C@]3(CCC(=O)[C@H]32)[C@@H](C)[C@@H]1O | 21.8 | – | – | – | – | –
7.81 (≈ 11.5 µM) | 0.0305 (≈ 0.0451 µM) | > 15.6 | C=C[C@]1(C)C[C@@H](OC(=O)CSc2nc(N/N=C/c3ccc(OC)cc3)c3ccsc3n2)[C@]2(C)[C@H](C)CC[C@]3(CCC(=O)[C@H]32)[C@@H](C)[C@@H]1O | 18.8 | – | – | – | – | –
0.122 (≈ 0.209 µM) | 0.122 (≈ 0.209 µM) | 1.95 (≈ 3.34 µM) | C=C[C@]1(C)C[C@@H](OC(=O)CSc2nccc(N3CCN(CC)CC3)n2)[C@]2(C)[C@H](C)CC[C@]3(CCC(=O)[C@H]32)[C@@H](C)[C@@H]1O | 28.6 | – | – | – | – | –
0.122 (≈ 0.195 µM) | 0.244 (≈ 0.389 µM) | 7.81 (≈ 12.5 µM) | C=C[C@]1(C)C[C@@H](OC(=O)CSc2nc(N3CCN(C)CC3)c3ccsc3n2)[C@]2(C)[C@H](C)CC[C@]3(CCC(=O)[C@H]32)[C@@H](C)[C@@H]1O | 26.1 | – | – | – | – | –
0.488 (≈ 0.769 µM) | 0.244 (≈ 0.384 µM) | 3.91 (≈ 6.15 µM) | C=C[C@]1(C)C[C@@H](OC(=O)CSc2nc(N3CCN(CC)CC3)c3ccccc3n2)[C@]2(C)[C@H](C)CC[C@]3(CCC(=O)[C@H]32)[C@@H](C)[C@@H]1O | 22.1 | – | – | – | – | –

SMILES | MIC [2] [µg/mL] | MIC [3] [µg/mL] | MIC [4] [µg/mL] | inhibition zone diameter [1] [mm] | MIC [5] [µg/mL] | OD [6] | OD [7] | OD [8] | OD [9]
C=C[C@]1(C)C[C@@H](OC(=O)CSc2nc(N(C)CCN(C)C)c3ccsc3n2)[C@]2(C)[C@H](C)CC[C@]3(CCC(=O)[C@H]32)[C@@H](C)[C@@H]1O | 0.0019 (≈ 0.00302 µM) | 0.244 (≈ 0.388 µM) | 0.244 (≈ 0.388 µM) | 29.4 | 0.244 (≈ 0.388 µM) | <0.3 | <0.3 | 0.1 | 0.1
